Tests used:
Format in all cases: cell-based
[1] = molecular target: T1, CDK1-NanoLuc fusion with CCNB1 in 293T or 293 cells (Homo sapiens, UniProt P06493); experiment: NanoBRET Target Engagement (TE) Intracellular Kinase Assay, CDK1/CCNB1; conditions: NanoBRET TE intracellular kinase assay, 2-hour incubation, read-out: NanoBRET-CDK1/B1 IC50
T1 construct: host or cells: 293T (ATCC CRL-3216) or 293 (ATCC CRL-1573)
Summary of the method: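 293T or 293 cells co-transfected with CDK1-NanoLuc and CCNB1 vectors, incubated 24 h, then exposed to NanoBRET Tracer K-10 plus compound for 2 h at 37° C. BRET ratio (610/450 nm) normalized to DMSO; IC50 from four-parameter logistic fit.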

[2] = molecular target: T2, CDK2-NanoLuc fusion with CCNE1 in 293T or 293 cells (Homo sapiens, UniProt P24941); experiment: NanoBRET Target Engagement (TE) Intracellular Kinase Assay, CDK2/CCNE1; conditions: NanoBRET TE intracellular kinase assay, 2-hour incubation, read-out: NanoBRET-CDK2/E1 IC50
T2 construct: host or cells: 293T (ATCC CRL-3216) or 293 (ATCC CRL-1573)

[3] = system: Phospho-Rb Ser807/811 in OVCAR3 cells; experiment: OVCAR3 Phospho-Rb Ser807/811 HTRF assay; conditions: Homo sapiens, OVCAR-3, 1 h, OVCAR3 cells, Phospho-Rb Ser807/811 HTRF, 1 hour incubation; read-out: pRb-OVCAR3 IC50
Method: Cells were trypsinized and resuspended in 1 mM hydroxyurea (Sigma; H8627), 90% RPMI and 10% fetal bovine serum. […] Dose response curve normalized to DMSO control was plotted using four-parameter logistic model for IC50 calculation.

[4] = molecular target: T3, CDK4-NanoLuc fusion with CCND1 in 293T or 293 cells (Homo sapiens, UniProt P11802); experiment: NanoBRET Target Engagement (TE) Intracellular Kinase Assay, CDK4/CCND1; conditions: NanoBRET TE intracellular kinase assay, 2-hour incubation, read-out: NanoBRET-CDK4/D1 IC50
T3 construct: host or cells: 293T (ATCC CRL-3216) or 293 (ATCC CRL-1573)
T3 sequence (P11802 whole entry, the tested form may be a part): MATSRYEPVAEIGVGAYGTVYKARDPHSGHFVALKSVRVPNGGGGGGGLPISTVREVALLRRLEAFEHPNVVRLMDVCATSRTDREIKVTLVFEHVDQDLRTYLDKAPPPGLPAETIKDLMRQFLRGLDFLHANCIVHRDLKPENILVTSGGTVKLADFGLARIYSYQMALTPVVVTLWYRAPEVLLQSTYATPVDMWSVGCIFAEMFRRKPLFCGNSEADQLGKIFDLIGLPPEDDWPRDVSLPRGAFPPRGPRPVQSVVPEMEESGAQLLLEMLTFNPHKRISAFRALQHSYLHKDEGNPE
T3 sequence (P24385 whole entry partner, the tested form may be a part): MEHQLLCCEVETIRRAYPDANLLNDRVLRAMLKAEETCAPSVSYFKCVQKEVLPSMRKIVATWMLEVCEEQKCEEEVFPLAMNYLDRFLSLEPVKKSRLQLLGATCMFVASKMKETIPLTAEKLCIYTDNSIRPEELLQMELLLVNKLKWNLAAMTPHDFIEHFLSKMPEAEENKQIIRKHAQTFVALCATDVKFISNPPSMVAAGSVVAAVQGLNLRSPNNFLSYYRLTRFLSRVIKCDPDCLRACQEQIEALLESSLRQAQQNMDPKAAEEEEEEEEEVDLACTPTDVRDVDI

T1 sequence (P06493 whole entry, the tested form may be a part): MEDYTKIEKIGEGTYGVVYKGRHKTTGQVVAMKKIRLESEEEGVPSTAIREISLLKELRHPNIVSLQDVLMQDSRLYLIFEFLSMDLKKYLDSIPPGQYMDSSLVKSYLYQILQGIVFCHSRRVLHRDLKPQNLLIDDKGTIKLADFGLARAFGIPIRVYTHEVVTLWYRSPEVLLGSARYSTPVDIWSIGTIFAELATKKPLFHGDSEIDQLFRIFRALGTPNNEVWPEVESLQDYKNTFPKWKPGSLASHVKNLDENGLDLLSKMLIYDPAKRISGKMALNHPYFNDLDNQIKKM
T1 sequence (P14635 whole entry partner, the tested form may be a part): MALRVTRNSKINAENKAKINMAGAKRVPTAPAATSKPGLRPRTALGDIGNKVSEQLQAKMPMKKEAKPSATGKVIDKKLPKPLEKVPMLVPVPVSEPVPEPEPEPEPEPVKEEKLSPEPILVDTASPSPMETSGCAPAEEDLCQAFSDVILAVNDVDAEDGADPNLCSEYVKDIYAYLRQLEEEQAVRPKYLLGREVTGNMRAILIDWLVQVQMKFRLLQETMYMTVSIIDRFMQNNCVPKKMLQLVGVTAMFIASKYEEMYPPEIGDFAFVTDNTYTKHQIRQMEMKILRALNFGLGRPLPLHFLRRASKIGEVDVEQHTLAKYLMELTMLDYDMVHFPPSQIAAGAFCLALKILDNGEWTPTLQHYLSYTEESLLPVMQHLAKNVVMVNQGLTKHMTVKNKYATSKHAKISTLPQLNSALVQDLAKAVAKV

Structure (SMILES)	IC50 [1]	IC50 [2]	IC50 [3]	IC50 [4]
COc1cc(O)c(C=O)c(OCC(=O)Nc2cc([C@H]3CC[C@@H](OC(=O)N4CC5CC(C4)O5)C3)[nH]n2)c1 [Compound 235]	0.0485 µM	0.0076 µM	0.121 µM	> 10 µM
COc1cc(O)c(C=O)c(OCC(=O)Nc2cc([C@H]3CC[C@@H](OC(=O)N4CC[C@@H]5C[C@@H]54)C3)[nH]n2)c1 [Compound 236]	0.0128 µM	0.0019 µM	0.0322 µM	4.25 µM
COc1cc(O)c(C=O)c(OCC(=O)Nc2cc([C@H]3CC[C@@H](OC(=O)N4CC5CC5C4)C3)[nH]n2)c1 (stereo partly shown) [Compound 237]	0.0116 µM	0.00179 µM	0.0557 µM	4.96 µM
COc1cc(O)c(C=O)c(OCC(=O)Nc2cc([C@H]3CC[C@@H](OC(=O)N4CC[C@H](C)C4)C3)[nH]n2)c1 [Compound 238]	0.00982 µM	0.00164 µM	0.0328 µM	4.1 µM
COc1cc(O)c(C=O)c(OCC(=O)Nc2cc([C@H]3CC[C@@H](OC(=O)N4CCC4(C)C)C3)[nH]n2)c1 [Compound 239, (1R,3S)-3-(3-(2-(2-formyl-3-hydroxy-5-methoxyphenoxy)acetamido)-1H-pyrazol-5-yl)cyclopentyl 2,2-dimethylazetidine-1-carboxylate]	0.00214 µM	0.00189 µM	0.0131 µM	0.846 µM
COc1cc(O)c(C=O)c(OCC(=O)Nc2cc([C@H]3CC[C@@H](OC(=O)N4CC[C@@H](F)C4)C3)[nH]n2)c1 [Compound 240]	0.0074 µM	0.00154 µM	0.0221 µM	2.8 µM
COc1cc(O)c(C=O)c(OCC(=O)Nc2cc([C@@H]3CCC(OC(=O)N4CCCC4)C3)[nH]n2)c1 (stereo partly shown) [Compound 241]	0.0229 µM	0.00305 µM	0.0776 µM	3.85 µM
COc1cc(O)c(C=O)c(OCC(=O)Nc2cc([C@H]3CC[C@@H](OC(=O)N4CC[C@H](OC)C4)C3)[nH]n2)c1 [Compound 242]	0.0131 µM	0.00505 µM	0.0669 µM	> 10 µM
COc1cc(O)c(C=O)c(OCC(=O)Nc2cc([C@H]3CC[C@@H](OC(=O)N4CCCC4(C)C)C3)[nH]n2)c1 [Compound 243]	0.00241 µM	0.00223 µM	0.0176 µM	0.484 µM
COc1cc(O)c(C=O)c(OCC(=O)Nc2cc([C@H]3CC[C@@H](OC(=O)N(C)C(C)C)C3)[nH]n2)c1 [Compound 244, (1R,3S)-3-{5-[2-(2-formyl-3-hydroxy-5-methoxyphenoxy)acetamido]-2H-pyrazol-3-yl}cyclopentyl N-isopropyl-N-methylcarbamate]	0.00417 µM	0.00142 µM	0.0212 µM	1.32 µM
COc1cc(O)c(C=O)c(OCC(=O)Nc2cc([C@H]3CC[C@@H](OC(=O)N4CCC[C@@H]4C)C3)[nH]n2)c1 [Compound 245]	0.00395 µM	0.00312 µM	0.0254 µM	0.723 µM
COc1cc(O)c(C=O)c(OCC(=O)Nc2cc([C@H]3CC[C@@H](OC(=O)N4CCC(F)(F)C4)C3)[nH]n2)c1 [Compound 246]	0.00945 µM	0.00278 µM	0.033 µM	6.11 µM
COc1cc(O)c(C=O)c(OCC(=O)Nc2cc([C@@H]3CC[C@H](OC(=O)NC(C)C)C3)[nH]n2)c1 [Compound 247]	0.0194 µM	0.0158 µM	0.101 µM	7.21 µM
CC(C)NC(=O)O[C@@H]1CC[C@H](c2cc(NC(=O)COc3cc(F)cc(O)c3C=O)n[nH]2)C1 [Compound 248]	0.106 µM	0.0202 µM	1.95 µM	0.575 µM
COc1cc(O)c(C=O)c(OCC(=O)Nc2cc([C@H]3CC[C@@H](OC(=O)NC45CC(C4)C5)C3)[nH]n2)c1 [Compound 249, (1R,3S)-3-{5-[2-(2-formyl-3-hydroxy-5-methoxyphenoxy)acetamido]-2H-pyrazol-3-yl}cyclopentyl N-{bicyclo[1.1.1]pentan-1-yl}carbamate]	0.0045 µM	0.0015 µM	0.0266 µM	1.19 µM
CC(C)NC(=O)O[C@@H]1CC[C@H](c2cc(NC(=O)COc3cc(OC(C)C)cc(O)c3C=O)n[nH]2)C1 [Compound 250]	0.0373 µM	0.00186 µM	0.0658 µM	9.24 µM
COc1cc(O)c(C=O)c(OCC(=O)Nc2cc([C@H]3CC[C@@H](OC(=O)NC4(C)CC4)C3)[nH]n2)c1 [Compound 251, (1R,3S)-3-(3-(2-(2-formyl-3-hydroxy-5-methoxyphenoxy)acetamido)-1H-pyrazol-5-yl)cyclopentyl (1-methylcyclopropyl)carbamate]	0.00413 µM	0.00122 µM	0.0151 µM	0.966 µM
Cc1cc(O)c(C=O)c(O[C@@H](C)C(=O)Nc2cc([C@H]3CC[C@@H](OC(=O)NC(C)C)C3)[nH]n2)c1 [Compound 252]	0.0306 µM	0.00648 µM	0.326 µM	4.09 µM
C#CCNC(=O)O[C@@H]1CC[C@H](c2cc(NC(=O)COc3cc(OC)cc(O)c3C=O)n[nH]2)C1 [Compound 253]	0.0184 µM	0.00265 µM	0.0287 µM	5.1 µM
COc1cc(O)c(C=O)c(OCC(=O)Nc2cc([C@H]3CC[C@@H](OC(=O)NC4(C)CCC4)C3)[nH]n2)c1 [Compound 254]	0.0028 µM	0.00228 µM	0.0214 µM	0.778 µM
COc1cc(O)c(C=O)c(OCC(=O)Nc2cc([C@H]3CC[C@@H](OC(=O)N4CCCC4)C3)[nH]n2)c1 [Compound 255, (1R,3S)-3-(3-(2-(2-formyl-3-hydroxy-5-methoxyphenoxy)acetamido)-1H-pyrazol-5-yl)cyclopentyl pyrrolidine-1-carboxylate]	0.0109 µM	0.00224 µM	0.0328 µM	4.27 µM
CC(C)NC(=O)O[C@@H]1CC[C@H](c2cc(NC(=O)COc3cc(-n4cccn4)cc(O)c3C=O)n[nH]2)C1 [Compound 257]	0.703 µM	0.0105 µM	2.49 µM	> 10 µM
